In ChEMBL document CHEMBL5126554, “Occurrence, synthesis and biological activity of 2-(2-phenyethyl)chromones” (Eur J Med Chem, 2022):

Tests used:
A549 [1] = experiment: Cytotoxicity against human A549 cells; format: functional, cell-based
HeLa = experiment: Cytotoxicity against human HeLa cells; format: functional, cell-based
K562 = experiment: Cytotoxicity against human K562 cells; format: functional, cell-based
SGC-7901 = experiment: Cytotoxicity against human SGC-7901 cells; format: functional, cell-based
A549 [2] = experiment: Cytotoxicity against human A549 cells by MTT assay; format: functional, cell-based
Staphylococcus aureus = experiment: Antibacterial activity against methicillin-resistant Staphylococcus aureus assessed as inhibition of bacterial growth incubated for 24 hrs by broth microdilution assay; format: functional, organism-based
Acetylcholinesterase [3] = biological target: T1, Acetylcholinesterase (Homo sapiens, UniProt P22303); details: dose 50.0 mg/ml, time 1.0 hrs
T1 sequence (P22303 whole entry): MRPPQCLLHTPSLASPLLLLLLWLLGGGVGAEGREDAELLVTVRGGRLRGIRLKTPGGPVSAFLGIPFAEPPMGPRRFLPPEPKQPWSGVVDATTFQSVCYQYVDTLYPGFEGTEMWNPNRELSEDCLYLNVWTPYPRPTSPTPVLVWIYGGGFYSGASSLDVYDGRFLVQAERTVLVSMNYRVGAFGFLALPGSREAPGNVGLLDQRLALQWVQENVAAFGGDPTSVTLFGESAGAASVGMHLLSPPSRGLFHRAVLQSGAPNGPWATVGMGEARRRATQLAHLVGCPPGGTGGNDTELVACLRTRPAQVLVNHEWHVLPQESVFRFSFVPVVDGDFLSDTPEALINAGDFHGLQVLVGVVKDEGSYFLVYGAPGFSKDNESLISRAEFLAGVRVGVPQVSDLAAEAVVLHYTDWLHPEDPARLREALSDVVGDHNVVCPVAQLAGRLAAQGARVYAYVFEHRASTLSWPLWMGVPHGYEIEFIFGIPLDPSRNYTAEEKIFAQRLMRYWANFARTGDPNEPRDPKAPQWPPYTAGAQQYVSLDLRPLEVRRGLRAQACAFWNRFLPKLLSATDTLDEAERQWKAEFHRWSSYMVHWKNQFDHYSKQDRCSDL

RAW264.7 = experiment: Inhibition of NO production in LPS stimulated mouse RAW264.7 cells by Griess reagent based analysis; format: functional, cell-based
[4] = biological target: cGMP-specific 3',5'-cyclic phosphodiesterase (Homo sapiens, UniProt O76074); experiment: Inhibition of human recombinant PDE5A1 using FAM-cGMP as substrate incubated for 60 mins by fluorescence polarization method
[5] = biological target: cGMP-inhibited 3',5'-cyclic phosphodiesterase 3A (Homo sapiens, UniProt Q14432); experiment: Inhibition of human recombinant PDE3A using FAM-cAMP as substrate incubated for 60 mins by fluorescence polarization method
cGMP-inhibited 3',5'-cyclic phosphodiesterase 3A, sequence (Q14432 whole entry): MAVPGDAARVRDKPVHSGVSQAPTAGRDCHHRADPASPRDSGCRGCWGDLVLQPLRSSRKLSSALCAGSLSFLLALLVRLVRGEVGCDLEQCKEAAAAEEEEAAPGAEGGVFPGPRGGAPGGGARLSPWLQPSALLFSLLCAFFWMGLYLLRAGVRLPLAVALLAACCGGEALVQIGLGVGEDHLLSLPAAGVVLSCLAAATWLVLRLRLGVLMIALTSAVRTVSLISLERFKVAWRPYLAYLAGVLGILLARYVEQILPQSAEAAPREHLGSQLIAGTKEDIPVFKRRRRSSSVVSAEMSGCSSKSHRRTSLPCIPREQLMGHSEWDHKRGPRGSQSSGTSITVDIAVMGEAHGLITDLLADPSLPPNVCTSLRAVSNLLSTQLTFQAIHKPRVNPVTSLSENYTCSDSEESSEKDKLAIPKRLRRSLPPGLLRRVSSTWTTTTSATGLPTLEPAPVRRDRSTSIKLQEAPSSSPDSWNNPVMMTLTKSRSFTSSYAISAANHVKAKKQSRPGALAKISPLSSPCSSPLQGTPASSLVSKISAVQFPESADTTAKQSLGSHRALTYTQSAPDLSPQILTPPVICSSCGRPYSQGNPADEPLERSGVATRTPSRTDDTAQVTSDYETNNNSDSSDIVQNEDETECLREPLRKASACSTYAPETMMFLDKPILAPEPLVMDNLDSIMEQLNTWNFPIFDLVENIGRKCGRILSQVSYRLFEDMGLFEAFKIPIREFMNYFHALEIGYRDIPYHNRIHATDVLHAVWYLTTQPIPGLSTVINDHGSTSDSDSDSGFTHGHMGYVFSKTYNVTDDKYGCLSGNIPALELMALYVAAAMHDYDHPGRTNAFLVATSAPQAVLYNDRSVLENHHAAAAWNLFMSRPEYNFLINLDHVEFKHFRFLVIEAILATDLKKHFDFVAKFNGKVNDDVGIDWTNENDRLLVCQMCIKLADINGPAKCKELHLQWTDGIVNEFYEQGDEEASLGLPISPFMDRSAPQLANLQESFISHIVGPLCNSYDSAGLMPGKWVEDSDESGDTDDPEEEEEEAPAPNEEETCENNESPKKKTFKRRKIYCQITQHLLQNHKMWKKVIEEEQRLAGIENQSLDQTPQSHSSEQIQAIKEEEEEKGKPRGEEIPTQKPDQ

Acetylcholinesterase [6] = biological target: T1, Acetylcholinesterase; experiment: Inhibition of AChE (unknown origin) by spectrophotometric based Ellman's method
Bel-7402 = experiment: Cytotoxicity against human Bel-7402 cells; format: functional, cell-based
[7] = Antioxidant activity assessed as inhibition of DPPH radical scavenging activity by measuring reduction in absorbance at 100 uM by spectrophotometric analysis relative to control; format: functional
[8] = biological target: Nuclear factor NF-kappa-B complex (Homo sapiens) (UniProt Q00653+P19838+Q04206); experiment: Inhibition of LPS induced NF-kappaB activation (unknown origin) assessed as relative luciferase activity; format: protein-complex assay
Nuclear factor NF-kappa-B complex (Homo sapiens), sequence (P19838 whole entry, looked up): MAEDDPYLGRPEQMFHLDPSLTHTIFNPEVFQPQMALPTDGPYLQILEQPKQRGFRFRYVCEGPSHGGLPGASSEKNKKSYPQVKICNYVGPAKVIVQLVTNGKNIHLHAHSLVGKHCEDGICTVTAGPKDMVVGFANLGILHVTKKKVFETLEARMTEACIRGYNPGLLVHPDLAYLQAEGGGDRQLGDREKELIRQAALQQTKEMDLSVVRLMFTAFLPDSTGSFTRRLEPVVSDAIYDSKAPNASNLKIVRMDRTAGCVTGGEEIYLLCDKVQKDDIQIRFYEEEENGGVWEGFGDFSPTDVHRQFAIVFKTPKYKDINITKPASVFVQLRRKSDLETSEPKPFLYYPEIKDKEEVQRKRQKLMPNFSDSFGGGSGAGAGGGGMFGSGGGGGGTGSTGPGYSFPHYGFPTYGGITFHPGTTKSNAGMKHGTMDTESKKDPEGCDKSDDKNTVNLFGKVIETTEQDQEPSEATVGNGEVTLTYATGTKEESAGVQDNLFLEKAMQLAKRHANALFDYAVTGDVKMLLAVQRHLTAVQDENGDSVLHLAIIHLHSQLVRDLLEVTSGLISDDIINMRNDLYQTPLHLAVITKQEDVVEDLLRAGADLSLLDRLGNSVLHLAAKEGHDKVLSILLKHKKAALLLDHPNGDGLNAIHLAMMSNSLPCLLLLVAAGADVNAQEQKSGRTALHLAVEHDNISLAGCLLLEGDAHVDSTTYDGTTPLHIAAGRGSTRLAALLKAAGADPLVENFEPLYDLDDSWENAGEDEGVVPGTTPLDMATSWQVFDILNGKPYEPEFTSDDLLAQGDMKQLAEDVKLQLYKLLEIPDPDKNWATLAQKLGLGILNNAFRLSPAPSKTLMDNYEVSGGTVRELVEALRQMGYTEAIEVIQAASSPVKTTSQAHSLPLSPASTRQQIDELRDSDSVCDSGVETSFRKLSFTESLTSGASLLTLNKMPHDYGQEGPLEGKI
Nuclear factor NF-kappa-B complex (Homo sapiens), sequence (Q00653 whole entry, looked up): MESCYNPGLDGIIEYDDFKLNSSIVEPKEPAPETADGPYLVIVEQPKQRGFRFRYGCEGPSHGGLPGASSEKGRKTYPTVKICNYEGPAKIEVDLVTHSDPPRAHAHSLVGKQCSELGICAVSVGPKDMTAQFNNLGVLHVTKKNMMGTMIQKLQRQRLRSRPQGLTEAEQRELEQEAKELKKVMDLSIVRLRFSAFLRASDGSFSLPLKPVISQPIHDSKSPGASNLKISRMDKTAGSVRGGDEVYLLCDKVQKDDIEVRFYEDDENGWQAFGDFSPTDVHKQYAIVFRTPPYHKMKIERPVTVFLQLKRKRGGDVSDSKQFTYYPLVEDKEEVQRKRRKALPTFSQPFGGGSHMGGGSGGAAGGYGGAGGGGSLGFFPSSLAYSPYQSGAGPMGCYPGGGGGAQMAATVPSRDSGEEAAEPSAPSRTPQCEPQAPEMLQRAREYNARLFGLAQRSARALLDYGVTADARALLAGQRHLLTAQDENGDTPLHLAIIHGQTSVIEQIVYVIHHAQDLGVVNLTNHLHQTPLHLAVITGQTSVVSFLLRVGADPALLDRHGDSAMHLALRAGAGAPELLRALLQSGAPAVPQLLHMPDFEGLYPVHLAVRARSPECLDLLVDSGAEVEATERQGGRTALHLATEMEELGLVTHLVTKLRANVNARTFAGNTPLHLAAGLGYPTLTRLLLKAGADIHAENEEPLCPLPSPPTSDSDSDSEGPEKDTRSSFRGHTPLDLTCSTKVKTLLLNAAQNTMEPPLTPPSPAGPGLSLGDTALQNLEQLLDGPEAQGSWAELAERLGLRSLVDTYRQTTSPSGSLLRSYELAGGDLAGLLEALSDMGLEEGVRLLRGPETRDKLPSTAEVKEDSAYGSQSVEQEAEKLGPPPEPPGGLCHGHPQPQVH
Nuclear factor NF-kappa-B complex (Homo sapiens), sequence (Q04206 whole entry, looked up): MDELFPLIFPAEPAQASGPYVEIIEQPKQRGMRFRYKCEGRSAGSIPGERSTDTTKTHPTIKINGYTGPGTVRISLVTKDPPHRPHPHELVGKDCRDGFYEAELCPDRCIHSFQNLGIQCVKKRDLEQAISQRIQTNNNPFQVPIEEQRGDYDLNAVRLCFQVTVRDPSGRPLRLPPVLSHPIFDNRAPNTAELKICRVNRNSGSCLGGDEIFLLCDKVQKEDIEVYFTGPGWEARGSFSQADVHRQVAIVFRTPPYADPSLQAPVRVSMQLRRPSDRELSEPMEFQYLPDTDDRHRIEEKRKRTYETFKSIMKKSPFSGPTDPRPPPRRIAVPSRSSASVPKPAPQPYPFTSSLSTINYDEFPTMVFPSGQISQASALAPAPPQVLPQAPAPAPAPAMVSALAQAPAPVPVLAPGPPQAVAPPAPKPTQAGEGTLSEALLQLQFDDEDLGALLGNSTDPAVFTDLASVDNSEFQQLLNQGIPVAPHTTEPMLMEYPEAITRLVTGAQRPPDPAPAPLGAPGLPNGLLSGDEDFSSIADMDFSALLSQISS

Mushroom tyrosinase = Mushroom tyrosinase (Agaricus bisporus, UniProt O42713+Q00024+C7FF04+C7FF05); experiment: Inhibition of mushroom tyrosinase activity using L-tyrosine as substrate preincubated for 5 mins followed by substrate addition and measured after 20 mins by microplate reader analysis

## C=C(CO[C@H]1c2c(oc(CCc3ccc(OC)cc3)cc2=O)[C@H]2O[C@H]2[C@H]1O)[C@@H]1CC[C@]2(C)CCC[C@H](C)[C@@]2(C)C1
A549 [1]
  IC50: 10.9 µM
HeLa
  IC50: 10.9 µM
K562
  IC50: 10.9 µM
SGC-7901
  IC50: 10.9 µM

## C=C(C)[C@H]1CC[C@@]2(C)CCCC(C(=O)O[C@H]3c4oc(CCc5ccccc5)cc(=O)c4[C@@H](O)[C@H](O)[C@@H]3O)=C2C1
A549 [2]
  IC50: 17.6 µM

## C/C1=C\CC/C(C(=O)O[C@@H]2c3oc(CCc4ccccc4)cc(=O)c3[C@H](O)[C@@H](O)[C@H]2O)=C/CC(C)(C)/C=C/C1
A549 [2]
  IC50: 17.6 µM

## COc1ccc(CCc2cc(=O)c3cc(OC)c(O)cc3o2)cc1
Staphylococcus aureus
  IC50: 220 µM

## COc1ccc(CCc2cc(=O)c3c(o2)[C@@H](O)[C@H](O)[C@H](O)[C@H]3OC)cc1
Acetylcholinesterase [3]
  inhibition: 17.5%

## COc1ccc(CCc2cc(=O)c3c(o2)[C@H](Cl)[C@@H](O)[C@@H](O)[C@H]3O)cc1
RAW264.7
  IC50: 1.6 µM

## C=C(C)[C@H]1CC[C@@]2(C)CCC=C(C(=O)O[C@H]3c4oc(CCc5ccccc5)cc(=O)c4[C@@H](O)[C@H](O)[C@@H]3O)[C@H]2C1
A549 [2]
  IC50: 17.6 µM

## O=C(CCc1ccccc1)O[C@@H]1c2oc(CCc3ccccc3)cc(=O)c2[C@H](O)[C@@H](O)[C@H]1O
[4]
  IC50: 15.1 µM
[5]
  IC50: 42.6 µM

## COc1ccc(CCc2cc(=O)c3c(o2)[C@H]2O[C@H]2[C@@H](O)[C@@H]3O)cc1O
Acetylcholinesterase [3]
  inhibition: 17.5%

## COc1ccc(CCc2cc(=O)c3c(o2)[C@H]2O[C@H]2[C@@H](O)[C@H]3OC)cc1O
Acetylcholinesterase [6]
  IC50: 442 µM

## COc1ccc(CCc2cc(=O)c3cc(O)c(OC)cc3o2)cc1
Bel-7402
  IC50: 5.76 µM
K562
  IC50: 5.76 µM
SGC-7901
  IC50: 5.76 µM

## O=c1cc(CCc2ccc(O)cc2)oc2cc(O)cc(O)c12
[7]
  inhibition: 56.1%

## COc1cc(C[C@@H](O)c2cc(=O)c3c(O)cc(O)cc3o2)ccc1O
[7]
  inhibition: 56.1%

## COc1ccc(CCc2cc(=O)c3cc4c(cc3o2)O[C@H]2c3c(oc(CCc5ccccc5)cc3=O)[C@H](O)[C@@H](O4)[C@@H]2O)cc1
Bel-7402
  IC50: 44.7 µM

## C=C(CO[C@H]1c2c(oc(CCc3ccccc3)cc2=O)[C@H]2O[C@H]2[C@H]1O)[C@@H]1CC[C@@]2(O)CCCC[C@@]2(C)C1
A549 [1]
  IC50: 10.9 µM
HeLa
  IC50: 10.9 µM
K562
  IC50: 10.9 µM
SGC-7901
  IC50: 10.9 µM

## O=c1cc(CCc2ccccc2)oc2c1[C@@H]1c3c(ccc4oc(CCc5ccccc5)cc(=O)c34)O[C@@H]([C@@H]1O)[C@H]2O
A549 [1]
  IC50: 10.9 µM
HeLa
  IC50: 10.9 µM
K562
  IC50: 10.9 µM
SGC-7901
  IC50: 10.9 µM

## O=c1cc(CCc2ccccc2)oc2c(O)cc(O)cc12
Staphylococcus aureus
  IC50: 220 µM

## CO[C@@H]1c2c(oc(CCc3ccccc3)cc2=O)[C@H](O)[C@@H](O)[C@H]1O
Acetylcholinesterase [3]
  inhibition: 17.5%

## COc1ccc(CCc2cc(=O)c3c(O)ccc(OC)c3o2)cc1
Staphylococcus aureus
  IC50: 220 µM

## COc1ccc(CCc2cc(=O)c3c(o2)[C@H](O)[C@H]2Oc4cc5oc(CCc6ccc(OC)cc6)cc(=O)c5cc4O[C@@H]3[C@H]2O)cc1
Bel-7402
  IC50: 42.1 µM

## O=c1cc(CCc2ccccc2)oc2c1[C@H]1c3c(ccc4oc(CCc5ccccc5)cc(=O)c34)O[C@H]([C@H]1O)[C@@H]2O
A549 [1]
  IC50: 10.9 µM
HeLa
  IC50: 10.9 µM
K562
  IC50: 10.9 µM
SGC-7901
  IC50: 10.9 µM

## COc1ccc(CCc2cc(=O)c3c(o2)[C@H](Cl)[C@H](O)[C@H](O)[C@@H]3O)cc1
RAW264.7
  IC50: 1.6 µM

## COc1ccc(CCc2cc(=O)c3cc(O)c(O)cc3o2)cc1
Bel-7402
  IC50: 5.76 µM
K562
  IC50: 5.76 µM
SGC-7901
  IC50: 5.76 µM

## O=c1cc(CCc2ccccc2)oc2c(O)ccc(O)c12
Staphylococcus aureus
  IC50: 220 µM
RAW264.7
  IC50: 1.6 µM

## O=c1cc(CCc2ccccc2)oc2c1[C@H](O)[C@@H](O)[C@H]1O[C@@H]21
Acetylcholinesterase [3]
  inhibition: 17.5%

## COc1ccc2c(=O)cc(CCc3ccccc3)oc2c1
[8]
  IC: 0.31 µM

## COc1ccc(CCc2cc(=O)c3cc(O)c(O[C@@H]4c5oc(CCc6ccccc6)cc(=O)c5[C@H](O)[C@@H](O)[C@H]4O)cc3o2)cc1
[4]
  IC50: 4.3 µM

## COc1cc2oc(CCc3ccccc3)cc(=O)c2cc1O
[8]
  IC: 0.31 µM

## O=c1cc(CCc2ccc(O)cc2)oc2cc(OC3O[C@H](CO)[C@@H](O)[C@H](O)[C@H]3O)cc(O)c12 (stereo partly drawn)
[7]
  inhibition: 56.1%

## O=c1cc(CCc2ccccc2)oc2c1[C@H](O)[C@H](O)[C@H](O)[C@H]2Cl
RAW264.7
  IC50: 1.6 µM

## COc1ccc(CCc2cc(=O)c3c(O)c(O)ccc3o2)cc1O
[8]
  IC: 0.31 µM

## COc1ccc(CCc2cc(=O)c3cc(O)c(OC)cc3o2)cc1O
Mushroom tyrosinase
  IC50: 89 µM

## COc1ccc(CCc2cc(=O)c3c(o2)[C@@H]2O[C@@H]2[C@@H]2O[C@H]32)cc1O
Acetylcholinesterase [3]
  inhibition: 17.5%

## O=c1cc(CCc2ccc(O)c(O)c2)oc2cc(O)cc(O)c12
[7]
  inhibition: 91.2%

## COc1ccc(CCc2cc(=O)c3c(o2)[C@@H](O)[C@H](O)[C@@H]2O[C@H]32)cc1
RAW264.7
  IC50: 1.6 µM

## COc1ccc(CCc2cc(=O)c3c(o2)[C@H]2O[C@H]2[C@@H](O)[C@@H]3O)cc1
Acetylcholinesterase [3]
  inhibition: 17.5%

## O=c1cc(CCc2ccccc2)oc2c1[C@H](O)[C@@H](O)[C@@H](O)[C@@H]2Oc1cc2oc(CCc3ccccc3)cc(=O)c2cc1O
[4]
  IC50: 4.2 µM

## COc1ccc(CCc2cc(=O)c3c(o2)[C@H]2O[C@H]2[C@@H](O)[C@H]3OC)cc1
Acetylcholinesterase [6]
  IC50: 156 µM

## COc1ccc(CCc2cc(=O)c3cc(OC)c(OC)cc3o2)cc1
[8]
  IC: 0.31 µM

## CCCOC(=O)c1cc(O)c(O)c(O)c1
[7]
  inhibition: 97.4%

## COc1ccc(CCc2cc(=O)c3c(o2)[C@@H](Oc2cc(O)cc4c(=O)cc(CCc5ccccc5)oc24)[C@H](O)[C@H](O)[C@H]3O)cc1
[4]
  IC50: 7.9 µM

## O=c1cc(CCc2ccccc2)oc2cc(O)c(O)cc12
Bel-7402
  IC50: 5.76 µM
K562
  IC50: 5.76 µM
SGC-7901
  IC50: 5.76 µM

## COc1ccc(CCc2cc(=O)c3cc(O)cc(O)c3o2)cc1
Mushroom tyrosinase
  IC50: 51.5 µM
